Assay results as given in patent US9193762B2, “Selective inhibitors of prolylcarboxypeptidase” (UNIVERSITY OF MISSISSIPPI, priority 2010, dated 2015).
“Also recorded” adds a separate entry of the source. Where a SMILES comes first, the peptide text is derived from it. The star is where a group is joined. Cbz = O=C(OCc1ccccc1)*

Tests used:
[1] = biological target: carboxypeptidase A [CPA, EC 3.4.17.1] (Bos taurus, UniProt P00730); test: carboxypeptidase A inhibition; type: biochemical
Description: While BK exerts its vasodilatory effect through the bradykinin B2 receptors (BKB2R), des-Arg9-BK (a substrate of PRCP) mediates its effect via the selective bradykinin B1 receptors (BKB1R). […] Carboxypeptidase A (CPA) is a highly conserved protease, which is present in pancreas and the secretory granules of mast cells. Although its substrate selectivity is different than that of PRCP, both CPA and PRCP can cleave the C-terminal aromatic or aliphatic amino acids of proteins or peptides. […] The reaction mixture was incubated at 37° C. for 1 h. The reaction was stopped by the addition of 0.5 M HCl.

[2] = biological target: carboxypeptidase B [CPB, EC 3.4.17.2] (Sus scrofa, UniProt P09955); test: carboxypeptidase B inhibition; type: biochemical
Chain of carboxypeptidase B [CPB, EC 3.4.17.2] (P09955 111-416 limits assumed): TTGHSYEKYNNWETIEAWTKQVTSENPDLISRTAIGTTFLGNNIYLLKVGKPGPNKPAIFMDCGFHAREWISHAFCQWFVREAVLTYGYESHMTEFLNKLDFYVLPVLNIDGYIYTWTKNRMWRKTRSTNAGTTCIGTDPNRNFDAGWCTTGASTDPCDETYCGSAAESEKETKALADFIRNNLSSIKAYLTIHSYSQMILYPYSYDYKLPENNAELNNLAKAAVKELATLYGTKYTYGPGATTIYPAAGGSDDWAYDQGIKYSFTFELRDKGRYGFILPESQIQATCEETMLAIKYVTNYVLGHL

[3] = biological target: CPN (hCPN, partially purified from plasma) (Homo sapiens (Human), UniProt P15169); test: carboxypeptidase CPN, metabolism of hippuryl-lysine; type: biochemical
Chain of CPN (hCPN, partially purified from plasma) (P15169 21-458): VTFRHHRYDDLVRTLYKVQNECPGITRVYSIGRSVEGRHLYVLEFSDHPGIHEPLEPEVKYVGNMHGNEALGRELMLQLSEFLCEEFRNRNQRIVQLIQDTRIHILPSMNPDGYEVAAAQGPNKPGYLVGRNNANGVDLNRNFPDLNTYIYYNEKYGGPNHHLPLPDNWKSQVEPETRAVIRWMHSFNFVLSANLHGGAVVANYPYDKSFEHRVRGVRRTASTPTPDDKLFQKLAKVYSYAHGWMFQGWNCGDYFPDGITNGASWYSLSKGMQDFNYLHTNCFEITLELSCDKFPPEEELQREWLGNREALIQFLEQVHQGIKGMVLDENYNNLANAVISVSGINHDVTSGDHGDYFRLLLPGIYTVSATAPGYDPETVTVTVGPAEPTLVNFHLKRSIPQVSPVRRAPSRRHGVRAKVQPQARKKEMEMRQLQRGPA
Chain of CPN (hCPN, partially purified from plasma) (P22792 22-545 partner): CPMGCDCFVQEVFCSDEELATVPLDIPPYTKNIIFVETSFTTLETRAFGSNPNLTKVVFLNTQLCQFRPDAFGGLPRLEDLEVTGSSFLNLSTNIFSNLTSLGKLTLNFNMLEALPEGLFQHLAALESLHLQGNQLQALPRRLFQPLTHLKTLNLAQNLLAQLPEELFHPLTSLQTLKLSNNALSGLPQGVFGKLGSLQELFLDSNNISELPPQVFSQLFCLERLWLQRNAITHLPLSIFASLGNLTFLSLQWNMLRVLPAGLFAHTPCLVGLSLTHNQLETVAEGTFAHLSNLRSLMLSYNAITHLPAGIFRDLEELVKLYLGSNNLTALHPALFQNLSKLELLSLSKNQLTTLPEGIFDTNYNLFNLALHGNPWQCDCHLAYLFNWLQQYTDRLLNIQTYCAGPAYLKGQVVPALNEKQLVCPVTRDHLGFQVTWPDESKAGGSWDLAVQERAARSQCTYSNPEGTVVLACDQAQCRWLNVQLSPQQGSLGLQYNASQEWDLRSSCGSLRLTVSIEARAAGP
Description: While BK exerts its vasodilatory effect through the bradykinin B2 receptors (BKB2R), des-Arg9-BK (a substrate of PRCP) mediates its effect via the selective bradykinin B1 receptors (BKB1R). […] Carboxypeptidase A (CPA) is a highly conserved protease, which is present in pancreas and the secretory granules of mast cells. Although its substrate selectivity is different than that of PRCP, both CPA and PRCP can cleave the C-terminal aromatic or aliphatic amino acids of proteins or peptides. […] All values were calculated as percentage of positive control after subtraction of background. […] Commercially available pooled normal human serum was used. The tubes were tightly covered, vortexed for 15 seconds and incubated for 60 min at 37° C. in a shaker water bath. The enzymatic reaction was stopped by addition of 250 μL of 1 M HCl solution and vortexed for 15 seconds. The blanks were stopped immediately after the addition of serum by 250 μL of 1M HCl before incubation. All samples were incubated on ice for 5 min. 1500 μL ethyl acetate was added, vortexed for 30 s and centrifuged for 10 min at 4000 g. 1 mL of the upper layer (ethyl acetate) was transferred into a 5 mL test tube and placed in a boiling water bath for 45-60 min to evaporate the ethyl acetate thoroughly, 3 mL of 1M NaCl solution was added to each tube and vortexed for 30 s. All samples were placed in water bath at 70° C. for 5 min to redissolve all the residual hippuric acid, then vortexed for 30 s. After 15 min of incubation at room temperature, the absorbance of hippuric acid was read at λ=228 nm.
The reaction mixture was incubated at 37° C. for 1 h. The reaction was stopped by the addition of 0.5 M HCl.

[4] = biological target: CPM (Homo sapiens (Human), UniProt P14384); test: carboxypeptidase CPM, metabolism of hippuryl-lysine; type: biochemical
Chain of CPM (P14384 18-443, species assumed): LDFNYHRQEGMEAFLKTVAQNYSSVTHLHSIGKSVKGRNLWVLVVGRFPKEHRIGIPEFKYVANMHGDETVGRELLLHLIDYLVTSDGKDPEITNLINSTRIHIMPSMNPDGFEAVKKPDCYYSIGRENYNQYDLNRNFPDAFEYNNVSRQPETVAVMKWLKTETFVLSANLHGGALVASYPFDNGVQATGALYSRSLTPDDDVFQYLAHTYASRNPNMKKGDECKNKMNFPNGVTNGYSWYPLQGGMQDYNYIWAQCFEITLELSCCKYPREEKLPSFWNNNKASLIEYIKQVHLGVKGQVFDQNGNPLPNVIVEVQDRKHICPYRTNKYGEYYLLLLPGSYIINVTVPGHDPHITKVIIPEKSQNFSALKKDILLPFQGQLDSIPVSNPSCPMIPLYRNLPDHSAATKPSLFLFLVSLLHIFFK

[5] = tested on: HPAEC permeability; test: in vitro vascular permeability assay, HPAEC monolayer with HK/PK complex; type: cell-based, human
Protocol: The effect of the inhibitors of PRCP on vascular permeability was assessed using an in vitro vascular permeability assay kit (Chemicon/Millipore, Mass.) according to the manufacturer's protocol. Briefly, collagen coating solution in 0.2×PBS, pH 7.1 was added to the inserts. After incubating for 1 h at room temperature, the inserts were hydrated with cell growth medium for 15 min and seeded with 200 μL of cell suspension (1.0×10^6 HPAEC/mL). The plate was incubated at 37° C. for 24 h until a cell monolayer was formed. The inserts were then treated with cell basal medium (negative control); 1 μg/mL LPS (positive control); 0.1 μM HK/PK complex in the absence or presence of HOE-140 (1 μM) and lisinopril (1 μM, […]) and incubated at 37° C. for 18 h. […] The fluorescence was read at an excitation wavelength of 485 nm and an emission wavelength of 528 nm using BioTek Synergy 2 Multi-Mode Microplate Reader.

[6] = tested on: food intake of mice; test: food intake in fasted mice after i.p. injection; type: in vivo
Protocol: Mice were single housed one week before the experiment. Male mice (n=6 per group; 4 months old) were then food deprived for 24 hours. […] Food intake was measured at 1 hour, 2 hours, 4 hours 8 hours and 24 hours.

[7] = toxicity: 14 metabolic markers in mice; type: in vivo
Description: The blood glucose level was decreased in drug-treated mice (n=3) by 15%.

[8] = biological target: α-kallikrein (Homo sapiens (Human), UniProt P03952); test: specificity: serine protease α-kallikrein; type: biochemical
Chain of α-kallikrein (P03952 391-638): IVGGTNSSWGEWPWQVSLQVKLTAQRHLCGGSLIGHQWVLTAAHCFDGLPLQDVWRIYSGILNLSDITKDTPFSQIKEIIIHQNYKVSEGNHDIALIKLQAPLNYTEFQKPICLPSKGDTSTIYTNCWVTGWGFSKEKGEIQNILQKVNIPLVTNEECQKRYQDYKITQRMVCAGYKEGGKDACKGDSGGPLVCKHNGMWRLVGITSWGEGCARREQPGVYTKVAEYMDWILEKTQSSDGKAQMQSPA
Chain of α-kallikrein (P03952 20-390 partner): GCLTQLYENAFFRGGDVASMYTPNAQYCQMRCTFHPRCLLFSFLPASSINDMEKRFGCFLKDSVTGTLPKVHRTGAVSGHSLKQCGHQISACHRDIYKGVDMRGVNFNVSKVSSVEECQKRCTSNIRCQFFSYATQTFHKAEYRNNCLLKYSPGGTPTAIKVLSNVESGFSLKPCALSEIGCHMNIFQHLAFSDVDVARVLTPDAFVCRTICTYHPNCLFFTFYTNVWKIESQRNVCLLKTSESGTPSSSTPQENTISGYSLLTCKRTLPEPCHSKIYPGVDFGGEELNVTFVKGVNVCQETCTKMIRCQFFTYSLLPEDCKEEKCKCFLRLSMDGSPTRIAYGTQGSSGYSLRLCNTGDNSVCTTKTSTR

[9] = tested on: carotid artery thrombosis in FXII−/− mice; test: FeCl3 carotid artery thrombosis model, FXII-deficient mice
Protocol: (§1) C57Bl/6 WT mice and C57Bl/6 mice deficient in factor fXII (FXII^−/−), were used in these studies. The procedures were approved by the Institutional Animal Care and Use Committee of Vanderbilt University. After anesthesia with pentobarbital (50 mg/kg IP), the right common carotid artery was exposed and fitted with a Doppler flow probe (Model 0.5 VB, Transonic System, Ithaca, N.Y.). […] Flow was monitored for 30 min. Mice were sacrificed by pentobarbital overdose after conclusion of the experiment, while under anesthesia.

[10] = biological target: factor XIa (FXIa) (Homo sapiens (Human), UniProt P03951); test: specificity: serine protease FXIa; type: biochemical
Chain of factor XIa (FXIa) (P03951 388-625): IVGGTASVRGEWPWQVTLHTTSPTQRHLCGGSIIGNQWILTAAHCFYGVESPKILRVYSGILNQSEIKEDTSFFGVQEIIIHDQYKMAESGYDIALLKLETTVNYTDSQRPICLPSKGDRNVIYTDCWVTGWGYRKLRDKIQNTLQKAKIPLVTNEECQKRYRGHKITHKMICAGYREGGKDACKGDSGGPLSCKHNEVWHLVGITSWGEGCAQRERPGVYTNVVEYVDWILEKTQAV
Chain of factor XIa (FXIa) (P03951 19-387 partner): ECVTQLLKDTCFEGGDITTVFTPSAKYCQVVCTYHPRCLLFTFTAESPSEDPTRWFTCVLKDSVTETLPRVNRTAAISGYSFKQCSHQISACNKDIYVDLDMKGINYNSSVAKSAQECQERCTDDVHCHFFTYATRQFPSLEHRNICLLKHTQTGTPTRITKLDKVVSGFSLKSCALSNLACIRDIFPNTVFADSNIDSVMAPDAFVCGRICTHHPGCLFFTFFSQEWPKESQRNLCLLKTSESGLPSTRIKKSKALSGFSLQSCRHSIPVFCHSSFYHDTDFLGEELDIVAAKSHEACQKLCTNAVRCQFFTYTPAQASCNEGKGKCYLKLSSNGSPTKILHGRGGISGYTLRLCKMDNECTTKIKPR

[11] = biological target: factor XIIa (FXIIa) (Homo sapiens (Human), UniProt P00748); test: specificity: serine protease FXIIa; type: biochemical
Chain of factor XIIa (FXIIa) (P00748 373-615): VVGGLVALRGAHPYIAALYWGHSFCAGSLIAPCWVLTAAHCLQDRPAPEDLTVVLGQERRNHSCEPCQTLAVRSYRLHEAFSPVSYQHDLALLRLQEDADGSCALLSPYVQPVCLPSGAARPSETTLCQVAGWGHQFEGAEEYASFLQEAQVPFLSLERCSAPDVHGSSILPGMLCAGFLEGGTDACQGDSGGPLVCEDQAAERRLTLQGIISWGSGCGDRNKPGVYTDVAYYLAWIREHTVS

[12] = tested on: carotid artery thrombosis in wild type C57BL/6 mice; test: FeCl3 carotid artery thrombosis model, wild type mice; conditions: 10 mg/kg IV, 3.5% FeCl3, vs PBS
Protocol: as §1

[13] = tested on: PRCP-dependent PK activation on human pulmonary artery endothelial cells (HPAEC)
Protocol: Applicants utilized two assays to evaluate the putative PRCP inhibitors; 1.) a chromogenic enzyme assay, that involved the continual monitoring [60 min] for the production of p-nitroaniline derived from rPRCP-catalyzed conversion of Ala-Pro-p-nitroaniline (APpNA) in the presence of inhibitor and; 2.) a cell-based assay measuring the PRCP-dependent PK activation on human pulmonary artery endothelial cells (HPAEC). […] Human pulmonary artery endothelial cells (HPAEC) were purchased from Invitrogen (Carlsbad, Calif.) and were cultured as previously described.^20 The cells were grown in Dulbecco's Modified Eagle's Medium (DMEM) overnight in 96 well plates (Costar). […] Gelatin blocking buffer (1% Gelatin) was prepared by adding appropriate amount of 5% gelatin stock to HEPES-carbonated buffer as described above. In the first step, gelatin blocking buffer was used to reduce the non specific binding. As part of this step, the cells were incubated with 1% gelatin buffer for 1 hour.

[14] = biological target: recombinant prolylcarboxypeptidase (rPRCP) (Homo sapiens (Human), UniProt P42785); test: chromogenic enzyme assay of rPRCP with Ala-Pro-p-nitroaniline (APpNA); type: biochemical
Chain of recombinant prolylcarboxypeptidase (rPRCP) (P42785 46-496): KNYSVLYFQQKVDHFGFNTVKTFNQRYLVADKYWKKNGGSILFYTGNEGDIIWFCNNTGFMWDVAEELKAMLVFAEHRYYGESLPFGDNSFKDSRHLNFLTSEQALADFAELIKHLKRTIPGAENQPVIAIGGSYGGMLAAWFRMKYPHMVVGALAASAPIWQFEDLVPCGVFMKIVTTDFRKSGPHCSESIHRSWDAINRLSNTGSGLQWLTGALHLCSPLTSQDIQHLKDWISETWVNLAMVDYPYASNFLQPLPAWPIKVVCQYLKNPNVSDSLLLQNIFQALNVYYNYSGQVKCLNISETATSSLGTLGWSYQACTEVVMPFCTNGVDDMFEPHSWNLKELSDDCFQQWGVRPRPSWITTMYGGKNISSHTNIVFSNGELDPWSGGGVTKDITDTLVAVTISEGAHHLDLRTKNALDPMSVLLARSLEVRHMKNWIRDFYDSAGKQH
Protocol: Applicants utilized two assays to evaluate the putative PRCP inhibitors; 1.) a chromogenic enzyme assay, that involved the continual monitoring [60 min] for the production of p-nitroaniline derived from rPRCP-catalyzed conversion of Ala-Pro-p-nitroaniline (APpNA) in the presence of inhibitor and; 2.) a cell-based assay measuring the PRCP-dependent PK activation on human pulmonary artery endothelial cells (HPAEC). […] The effects of the inhibitors of PRCP were determined using a previously published method^31. Briefly, rPRCP was incubated in the presence or absence of various PRCP inhibitors in HEPES-carbonated buffer containing 1 mM Ala-Pro-paranitroaniline (APpNA, a PRCP chromogenic substrate). The final volume was 100 μL and the time of incubation was 60 min. […] Generation of free p-nitroaniline from APpNA was determined by monitoring changes in absorbance at 405 nm. Assays were done a minimum of 3 times.

[15] = tested on: trypsin; test: specificity: serine protease trypsin; type: biochemical
[16] = failed to inhibit at these concentrations

Chain of carboxypeptidase A [CPA, EC 3.4.17.1] (P00730 111-419 limits assumed): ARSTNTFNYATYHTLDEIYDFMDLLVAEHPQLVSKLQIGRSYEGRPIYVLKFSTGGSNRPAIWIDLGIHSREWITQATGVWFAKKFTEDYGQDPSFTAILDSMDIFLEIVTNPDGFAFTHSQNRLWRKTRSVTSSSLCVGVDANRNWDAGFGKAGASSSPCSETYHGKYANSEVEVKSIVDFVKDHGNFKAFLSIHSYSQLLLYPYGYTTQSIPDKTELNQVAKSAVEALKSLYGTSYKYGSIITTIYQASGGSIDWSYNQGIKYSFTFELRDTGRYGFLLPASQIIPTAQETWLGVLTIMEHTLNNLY

Molecule: c1cnc2c(c1)ccc1cccnc12 [1,10-phenanthroline]
- Ki, CPA [1]: 486 ηM
- Ki, CPB [2]: 738.5 ηM
- IC50 [3]: 1000 µM
- Ki [3]: 615 µM
- IC50 [4]: 640 µM
- Ki [4]: 394 µM

Molecule: CCCCCCCCCCCCNC(=O)[C@@H]1CCCN1C(=O)[C@@H]1CCCN1.Cl [RS-33-21, (S)—N-dodecyl-1-((S)-pyrrolidine-2-carbonyl)pyrrolidine-2-carboxamide hydrochloride]
- inhibition of CPA (in words) [1]: not inhibited
- reduction of cell permeability ([5]; 100 μM, in the presence of HK/PK (0.1 μM each)): 90%
- BK-induced permeability blocked ([5]; concentration not given): 100%
- time to start of attenuation of food intake ([6]; i.p.): ≤ 1 h
- food intake at 1 mg/kg ([6]; i.p. 1 mg/kg): lower food intake, although the reduction was not significant at 2, 4, 8, or 24 h
- food intake at 10 mg/kg ([6]; i.p. 10 mg/kg, all time intervals): Significant declines in food intake
- food intake, dose and time dependence ([6]; i.p., 1, 10 or 100 mg/kg, hydrochloride): induced appetite loss that was dose- and time-dependent; also recorded: inhibited food intake; also recorded: reduced food-intake in mice in a dose- and time-dependent fashion; also recorded: reduced food intake in mice in a dose-dependent and time-dependent manner
- food intake at 100 mg/kg ([6]; single i.p. injection 100 mg/kg, 1-24 h, hydrochloride): Significant declines in food intake; also recorded: reduced food intake
- decrease in blood glucose level ([7]; drug-treated mice, n=3): 15%
- glucose levels compared with control mice (in words) ([7]; mice, Table 16): relatively low but not statistically significant
- increase in blood amylase compared to sham animals ([7]; mice, n=3): 20%
- change in electrolyte levels, body water, markers of kidneys and liver ([7]; mice, within 8 h): failed to cause any significant change
- inhibition of CPB (in words) [2]: not inhibited
- concentration at which kallikrein was not inhibited [8, 16]: > 1.0 mM
- antithrombotic effect (in words) ([9]; FXII deficient mice): evidence for an antithrombotic effect
- mice that did not develop occlusion ([9]; FXII−/− mice, 10 mg/kg IV, 12.5% FeCl3): 4 of 6
- concentration at which FXIa was not inhibited [10, 16]: > 1.0 mM
- concentration at which FXIIa was not inhibited [11, 16]: > 1.0 mM
- vessel occlusion [12]: did not prevent vessel occlusion
- time to arterial occlusion ([12]; hydrochloride): nor prolong the time to arterial occlusion; also recorded: did not observe shortening of carotid artery occlusion times
- inhibition of CPN (in words) ([3]; metabolism of hippuryl-lysine): did not inhibit
- inhibition of CPM (in words) ([4]; metabolism of hippuryl-lysine): did not inhibit

Molecule: CCOCCOCCOCCCNC(=O)[C@@H]1CCCN1C(=O)[C@@H]1CCCN1C(=O)OCc1ccccc1 [RS-33-22, (S)-benzyl-2-((S)-2-((3-(2-(2-ethoxyethoxy)ethoxy)propyl)carbamoyl)pyrrolidine-1-carbonyl) pyrrolidine-1-carboxylate]
- blocking of PK activation on HPAEC (in words) [13]: ineffective
- rPRCP inhibition (in words) [14]: ineffective

Molecule: O=C[C@@H]1CCCN1C(=O)[C@@H]1CCCN1C(=O)OCc1ccccc1 [Z-Pro-Pro-OH, 1-[1-(benzyloxycarbonyl)-L-prolyl]prolinal, reference compound] (Cbz-Pro-Pro-aldehyde)
- blocking of PK activation on HPAEC (in words) [13]: a little effect
- rPRCP inhibition (in words) [14]: a little effect

Molecule: corn trypsin inhibitor
- IC50 [11]: 0.2 µM
- Ki [11]: 0.12 µM

B1: soybean trypsin inhibitor: soybean trypsin inhibitor (SBTI), comparison inhibitor of kallikrein, FXIa and trypsin (protein, UniProt P01070 25-205, looked up)
Trypsin inhibitor A: DFVLDNEGNPLENGGTYYILSDITAFGGIRAAPTGNERCPLTVVQSRNELDKGIGTIISSPYRIRFIAEGHPLSLKFDSFAVIMLCVGIPTEWSVVEDLPEGPAVKIGENKDAMDGWFRLERVSDDEFNNYKLVFCPQQAEDDKCGDIGISIDHDDGTRRLVVSKNKPLVVQFQKLDKESL
- IC50 [8]: 10 µM
- IC50 [10]: 1 µM
- IC50 [15]: 0.2 µM
